Article PMC9324262, “Selective CDK9 Inhibition by Natural Compound Toyocamycin in Cancer Cells” (Cancers, 2022)

What was measured:
[1] = tested on: 451-Lu-BR human melanoma cells; assay: proliferation assay by cell counting; assay type: cell-based
Description: Proliferation assays were performed for 451-Lu-BR human melanoma cells in response to toyocamycin exposure. First, 20,000 cells were seeded per well in 24-well plates. Cells were treated with either DMSO (<0.01% final concentration) or various toyocamycin concentrations. Cell proliferation was assessed by cell counting using a hemocytometer (n = 3) after 24, 48, and 72 h of treatment. The data were plotted as the total number of cells in response to toyocamycin for each treatment duration relative to DMSO treated cells.

[2] = tested on: HCT116 SFRP1-GFP colon cancer cells; assay: GFP reactivation in HCT116 SFRP1-GFP model; assay type: cell-based, human; settings: dose-response
Description: YB5 cells are derived from SW48 cells (human colon cancer cell line), and contain a single insertion of a DNA hypermethylated cytomegalovirus (CMV) promoter driving the green fluorescent protein (GFP) gene, as previously described. YB5 cells are cultured in L-15 medium supplemented with 10% fetal bovine serum and grown in log-phase in 1% CO2 atmosphere. YB5 cells were authenticated by DNA fingerprinting prior to drug screening and validation experiments. GFP expression in YB5 cells is silenced in >99.9% of the cells due to the CMV promoter DNA hypermethylation and repressive chromatin marks around the transcriptional start site. The human HCT116 colon cancer-derived GFP-reporter system, comprising a GFP gene under the control of an endogenously hypermethylated SFRP1 gene promoter, was kindly provided by Dr. Stephen Baylin (Johns Hopkins University). These cells are cultured in McCoy’s 5A medium supplemented with 10% fetal bovine serum and grown in log-phase in 5% CO2 atmosphere at 37 °C. […]
After treatment, YB5 cells were trypsinized for 15 min and resuspended in L-15 media containing propidium iodide (PI) to stain dead cells. GFP expression and PI staining were quantified by a BD LSR II flow cytometer (BD Biosciences, San Jose, CA, USA). A maximum of 10,000 cells was analyzed per well. […]

[3] = tested on: HCT116 cells; assay: cell cycle analysis by flow cytometry; assay type: cell-based, human
Description: For cell cycle analysis, cells were cultured in T25 flasks, trypsinized, and washed with PBS. Then, 1 × 10^6 cells were fixed in 100% cold ethanol overnight at −20 °C. Cells were then washed with PBS and treated with 100 μg/mL RNase A (Invitrogen, Waltham, MA USA) for 20 min, at 37 °C. DNA was stained with 5 μg/mL propidium iodide (Sigma, St. Louis, MO, USA). The cell cycle was analyzed by flow cytometry using a Guava® easyCyte HT System (Millipore) with GuavaSoft 3.2 software.

[4] = tested on: YB5 cells; assay: RNA sequencing, differential gene expression; assay type: cell-based, human
Description: Sequenced reads were aligned to the GRCh38.100 reference genome using STAR version 2.7.5a and gene-level counts were generated by setting the “quantMode GeneCounts” flag. Differential expression analysis was performed using EdgeR version 3.32.1.. The “filterByExpr” function in EdgeR was then used to determine genes with sufficiently large counts to be included in downstream differential expression testing. The filtered count matrix was then normalized using TMM normalization and differential expression testing was performed using the “glmTreat” function with the minimal required fold-change threshold set to “log2(1)” for significant differential gene expression (FDR < 0.1).

[5] = 6 h treatment followed by 18 h without exposure

N#Cc1cn([C@@H]2O[C@H](CO)[C@@H](O)[C@H]2O)c2ncnc(N)c12 [toyocamycin, 7-Deaza-7-cyanoadenosine]
cell proliferation ([1]; 72 h treatment): full proliferation arrest | cell proliferation ([1]; low doses, 24 h treatment): did not reduce cell proliferation | GFP expression [2]: induced dose-dependent GFP expression | apoptotic cells [3, 5]: 10% | cell cycle [3, 5]: not significantly impacted | cell cycle ([3]; 24 h treatment, 500–1000 nM): significantly blocked the cell cycle | gene downregulation ([4]; 250 nM, 2 h): 3.5% | number of genes downregulated ([4]; 250 nM, 2 h): 513 genes | number of genes upregulated ([4]; 250 nM, 2 h): 24 genes | number of genes downregulated ([4]; 250 nM, 10 h): 2299 genes | number of genes upregulated ([4]; 250 nM, 10 h): 1999 genes | level of differentially expressed genes ([4]; 250 nM, 10 h to 96 h): up to 60% | number of genes downregulated ([4]; 250 nM, 24 h): 3651 genes | number of genes upregulated ([4]; 250 nM, 24 h): 3387 genes | number of genes downregulated ([4]; 250 nM, 48 h): 4377 genes | number of genes upregulated ([4]; 250 nM, 48 h): 4449 genes | number of genes downregulated ([4]; 250 nM, 96 h): 5061 genes | number of genes upregulated ([4]; 250 nM, 96 h): 5050 genes | endogenous retrovirus (ERV) expression ([4]; 24 h treatment): induced significant ERV expression
